Read-outs that look alike come from different tables or passages of the source.
Assays:
[1] = target: T1, full-length beta-Catenin (Uniprot ID P35222) (Homo sapiens, UniProt P35222); test: Fluorescence polarization IC50 (beta-catenin / 5FAM-TCF4 10-53 competition); type: binding
T1 construct: 10 nM full-length beta-Catenin (Uniprot ID P35222)
T1 sequence (P35222 1-781): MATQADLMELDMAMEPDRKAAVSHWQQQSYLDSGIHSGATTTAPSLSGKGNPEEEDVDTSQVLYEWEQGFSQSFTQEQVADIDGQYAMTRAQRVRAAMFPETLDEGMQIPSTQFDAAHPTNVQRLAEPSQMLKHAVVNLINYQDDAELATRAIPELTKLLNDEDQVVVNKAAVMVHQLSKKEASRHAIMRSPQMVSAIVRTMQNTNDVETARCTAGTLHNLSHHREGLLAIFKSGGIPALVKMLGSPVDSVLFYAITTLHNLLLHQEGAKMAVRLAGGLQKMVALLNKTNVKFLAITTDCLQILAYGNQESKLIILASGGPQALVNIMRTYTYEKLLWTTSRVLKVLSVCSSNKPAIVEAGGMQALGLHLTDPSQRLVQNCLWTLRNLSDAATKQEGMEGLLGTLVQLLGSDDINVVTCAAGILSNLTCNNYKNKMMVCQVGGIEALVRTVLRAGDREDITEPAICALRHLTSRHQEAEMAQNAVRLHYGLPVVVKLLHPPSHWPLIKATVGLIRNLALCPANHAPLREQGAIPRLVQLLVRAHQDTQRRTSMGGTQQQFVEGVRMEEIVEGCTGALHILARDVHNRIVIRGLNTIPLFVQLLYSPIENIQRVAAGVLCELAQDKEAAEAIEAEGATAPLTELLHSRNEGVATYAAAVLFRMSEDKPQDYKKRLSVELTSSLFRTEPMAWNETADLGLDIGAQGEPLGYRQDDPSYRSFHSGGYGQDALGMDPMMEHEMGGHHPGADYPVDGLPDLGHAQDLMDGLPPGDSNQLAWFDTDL

CHI Log D procedure = type: physicochemical; conditions: for CHI Log D: pH 7.4; for chromatographic logD: pH 7.4, CHI Log D
[2] = target: T2, beta-catenin/TCF4 engagement (Homo sapiens, UniProt P35222); test: Nano-BRET target engagement assay (B-cat-Halo & TCF4-Luc in HEK293 cells); type: cell-based; conditions: for IC50: read-out: NanoBRET Abs IC50; for inhibition at 10 µM: HEK293, 10 uM, read-out: NanoBRET % inh @ 10 uM
T2 construct: expressed in transfected cells; host or cells: HEK293
T2 sequence (P35222 1-781): T1 sequence (P35222 1-781)

[3] = fluorescence polarization, beta-catenin, read-out: FP EC50

Row | Structure (SMILES) | IC50 ([1]; read-out: beta-Catenin FP IC50) [nM] | CHI Log D (CHI Log D procedure) | IC50 ([2]; Abs IC50) [nM] | IC50 [2] [nM] | IC50 ([1]; read-out: FP EC50) [nM] | chromatographic logD (CHI Log D procedure) | inhibition at 10 µM [2] [%] | IC50 [1, 3] [nM] | IC50 ([2]; absolute IC50) [nM]
1 | CC(=O)N1CCC[C@]12CC=CCCCC1(CCCC=CCCCOC(=O)N3CC[C@@](C(=O)N[C@@H](Cc4ccsc4)C(=O)N[C@@H](Cc4cn(C)c5ccccc45)C(=O)N[C@@H](Cc4c[nH]cn4)C(N)=O)(C3)NC(=O)[C@H](CC(N)=O)NC(=O)[C@H](Cc3ccccc3)NC(=O)[C@H](C)NC(=O)[C@H](C)NC(=O)[C@H](CC(=O)O)NC(=O)[C@H](CC(=O)O)NC1=O)NC(=O)[C@H](CC(C)(C)C)NC(=O)[C@H](CC(=O)O)NC2=O (stereo partly drawn) [I-799, Ac-PL3-Asp-Npg-B5-Asp-Asp-Ala-Ala-Phe-Asn-PyrS2-3Thi-1MeW-His-NH2] | 92 |  |  |  |  | 2.06 | 0.9 |  | 
2 | CC(=O)N1CCC[C@]12CC=CCCCC1(CCCC=CCCCOC(=O)N3CC[C@@](C(=O)N[C@@H](Cc4ccsc4)C(=O)N[C@@H](Cc4c[nH]c5ccc(F)cc45)C(=O)N[C@@H](Cc4c[nH]cn4)C(N)=O)(C3)NC(=O)[C@H](CC(N)=O)NC(=O)[C@H](Cc3ccccc3)NC(=O)[C@H](C)NC(=O)[C@H](C)NC(=O)[C@H](CC(=O)O)NC(=O)[C@H](CC(=O)O)NC1=O)NC(=O)[C@H](CC(C)(C)C)NC(=O)[C@H](CC(=O)O)NC2=O (stereo partly drawn) [I-800, Ac-PL3-Asp-Npg-B5-Asp-Asp-Ala-Ala-Phe-Asn-PyrS2-3Thi-5FW-His-NH2] | 79 |  |  |  |  | 2 | 8.1 |  | 
3 | CC(=O)N1CCC[C@]12CC=CCCCC1(CCCC=CCCCCOC(=O)N3CC[C@@](C(=O)N[C@@H](Cc4ccsc4)C(=O)N[C@@H](Cc4csc5ccccc45)C(=O)N[C@@H](CCC(N)=O)C(=O)N[C@@H](C)C(N)=O)(C3)NC(=O)[C@H](CC(N)=O)NC(=O)[C@H](Cc3ccccc3)NC(=O)[C@H](C)NC(=O)[C@H](C)NC(=O)[C@H](CC(=O)O)NC(=O)[C@H](CC(=O)O)NC1=O)NC(=O)[C@H](CC(C)(C)C)NC(=O)[C@H](CC(=O)O)NC2=O (stereo partly drawn) [I-825, Ac-PL3-Asp-Npg-B5-Asp-Asp-Ala-Ala-Phe-Asn-PyrS3-3Thi-BztA-Gln-Ala-NH2] | 15 | 2.028 |  | 27500 |  |  |  | 15 | 
4 | CC(=O)N1CCC[C@]12CC=CCCCC1(CCCC=CCCCCOC(=O)N3CC[C@@](C(=O)N[C@@H](Cc4ccsc4)C(=O)N[C@@H](Cc4csc5ccccc45)C(=O)N[C@@H](CCC(N)=O)C(=O)N[C@H](C)C(N)=O)(C3)NC(=O)[C@H](CC(N)=O)NC(=O)[C@H](Cc3ccccc3)NC(=O)[C@H](C)NC(=O)[C@H](C)NC(=O)[C@H](CC(=O)O)NC(=O)[C@H](CC(=O)O)NC1=O)NC(=O)[C@H](CC(C)(C)C)NC(=O)[C@H](CC(=O)O)NC2=O (stereo partly drawn) [I-830, Ac-PL3-Asp-Npg-B5-Asp-Asp-Ala-Ala-Phe-Asn-PyrS3-3Thi-BztA-Gln-dAla-NH2] | 15 | 2.042 |  | 38500 |  |  |  | 15 | 
5 | CC(=O)N1CCC[C@]12CC=CCCCC1(CCCC=CCCCCOC(=O)N3CC[C@@](C(=O)N[C@@H](Cc4ccsc4)C(=O)N[C@@H](Cc4csc5ccccc45)C(=O)N[C@@H](CC(N)=O)C(=O)N[C@H](C)C(N)=O)(C3)NC(=O)[C@H](CC(N)=O)NC(=O)[C@H](Cc3ccccc3)NC(=O)[C@H](C)NC(=O)[C@H](C)NC(=O)[C@H](CC(=O)O)NC(=O)[C@H](CC(=O)O)NC1=O)NC(=O)[C@H](CC(C)(C)C)NC(=O)[C@H](CC(=O)O)NC2=O (stereo partly drawn) [I-834, Ac-PL3-Asp-Npg-B5-Asp-Asp-Ala-Ala-Phe-Asn-PyrS3-3Thi-BztA-Asn-dAla-NH2] | 14 | 2.08 |  | 33700 |  |  |  | 14 | 
6 | CC(=O)N1CCC[C@]12CC=CCCCC1(CCCC=CCCCOC(=O)N3CC[C@@](C(=O)N[C@@H](Cc4ccsc4)C(=O)N[C@@H](Cc4csc5ccccc45)C(=O)N[C@@H](CCC(N)=O)C(N)=O)(C3)NC(=O)[C@H](Cc3ccccc3)NC(=O)[C@H](Cc3ccccc3)NC(=O)[C@H](C)NC(=O)[C@H](C)NC(=O)[C@H](Cc3ccc(C(=O)O)cc3)NC(=O)[C@H](CC(=O)O)NC1=O)NC(=O)[C@H](CC(C)(C)C)NC(=O)[C@H](CC(=O)O)NC2=O (stereo partly drawn) [I-850, Ac-PL3-Asp-Npg-B5-Asp-4COOHF-Ala-Ala-Phe-Phe-PyrS2-3Thi-BztA-Gln-NH2] | 26 |  |  |  |  | 2.26 |  |  | 16400

Stronger by IC50 ([1]; read-out: beta-Catenin FP IC50), values ahead:

Row | IC50 ([1]; read-out: beta-Catenin FP IC50) [nM] | CHI Log D (CHI Log D procedure) | IC50 ([2]; Abs IC50) [nM] | IC50 [2] [nM] | IC50 ([1]; read-out: FP EC50) [nM] | chromatographic logD (CHI Log D procedure) | inhibition at 10 µM [2] [%] | IC50 [1, 3] [nM] | IC50 ([2]; absolute IC50) [nM] | Structure (SMILES)
7 | 5 | 2.358 | 13700 | 13700 |  |  |  |  |  | CC(=O)N1CCC[C@]12CC=CCCCC1(CCCC=CCCCOC(=O)N3CC[C@@](C(=O)N[C@@H](Cc4ccsc4)C(=O)N[C@@H](Cc4csc5ccccc45)C(=O)N[C@@H](Cc4c[nH]cn4)C(N)=O)(C3)NC(=O)[C@H](CC(N)=O)NC(=O)[C@H](Cc3ccccc3)NC(=O)[C@H](C)NC(=O)[C@H](C)NC(=O)[C@H](CN(CC(=O)O)CC(F)(F)F)NC(=O)[C@H](CC(=O)O)NC1=O)NC(=O)[C@H](CC(C)(C)C)NC(=O)[C@H](CC(=O)O)NC2=O (stereo partly drawn) [I-770, Ac-PL3-Asp-Npg-B5-Asp-TfeGA-Ala-Ala-Phe-Asn-PyrS2-3Thi-BztA-His-NH2]
8 | 5 | 2.031 |  | 37300 |  |  |  |  |  | CC(=O)N1CCC[C@]12CC=CCCCC1(CCCC=CCCCOC(=O)N3CC[C@@](C(=O)N[C@@H](Cc4ccsc4)C(=O)N[C@@H](Cc4csc5ccccc45)C(=O)N[C@@H](Cc4c[nH]cn4)C(N)=O)(C3)NC(=O)[C@H](CCC(N)=O)NC(=O)[C@H](Cc3ccccc3)NC(=O)[C@H](C)NC(=O)[C@H](C)NC(=O)[C@H](CC(=O)O)NC(=O)[C@H](CC(=O)O)NC1=O)NC(=O)[C@H](CC(C)(C)C)NC(=O)[C@H](CC(=O)O)NC2=O (stereo partly drawn) [I-771, Ac-PL3-Asp-Npg-B5-Asp-Asp-Ala-Ala-Phe-Gln-PyrS2-3Thi-BztA-His-NH2]
9 | 7 | 2.069 |  | > 20000 | 7 |  |  |  |  | CC(=O)N1CCC[C@]12CC=CCCCC1(CCCC=CCCCOC(=O)N3CC[C@@](C(=O)N[C@@H](Cc4ccsc4)C(=O)N[C@@H](Cc4csc5ccccc45)C(=O)N[C@@H](Cc4c[nH]cn4)C(N)=O)(C3)NC(=O)[C@H](CCC(N)=O)NC(=O)[C@H](Cc3ccccc3)NC(=O)[C@H](C)NC(=O)[C@H](C)NC(=O)[C@H](CC(=O)O)NC(=O)[C@H](CC(=O)O)NC1=O)NC(=O)[C@H](CC(C)(C)C)NC(=O)[C@H](CC(=O)O)NC2=O (stereo partly drawn) [I-772, Ac-PL3-Asp-Npg-B5-Asp-Asp-Ala-Ala-Phe-Gln-PyrS2-3Thi-BztA-His-NH2]
10 | 13 | 2.1 |  | > 20000 |  |  |  | 13 |  | CC(=O)N1CCC[C@]12CC=CCCCC1(CCCC=CCCCCOC(=O)N3CC[C@@](C(=O)N[C@@H](Cc4ccsc4)C(=O)N[C@@H](Cc4csc5ccccc45)C(=O)N[C@@H](Cc4c[nH]cn4)C(=O)N[C@@H](C)C(N)=O)(C3)NC(=O)[C@H](CC(N)=O)NC(=O)[C@H](Cc3ccccc3)NC(=O)[C@H](C)NC(=O)[C@H](C)NC(=O)[C@H](CC(=O)O)NC(=O)[C@H](CC(=O)O)NC1=O)NC(=O)[C@H](CC(C)(C)C)NC(=O)[C@H](CC(=O)O)NC2=O (stereo partly drawn) [I-827, Ac-PL3-Asp-Npg-B5-Asp-Asp-Ala-Ala-Phe-Asn-PyrS3-3Thi-BztA-His-Ala-NH2]
11 | 9 | 2.095 |  | 39800 |  |  |  | 9 |  | CC(=O)N1CCC[C@]12CC=CCCCC1(CCCC=CCCCCOC(=O)N3CC[C@@](C(=O)N[C@@H](Cc4ccsc4)C(=O)N[C@@H](Cc4csc5ccccc45)C(=O)N[C@@H](Cc4c[nH]cn4)C(=O)N[C@H](C)C(N)=O)(C3)NC(=O)[C@H](CC(N)=O)NC(=O)[C@H](Cc3ccccc3)NC(=O)[C@H](C)NC(=O)[C@H](C)NC(=O)[C@H](CC(=O)O)NC(=O)[C@H](CC(=O)O)NC1=O)NC(=O)[C@H](CC(C)(C)C)NC(=O)[C@H](CC(=O)O)NC2=O (stereo partly drawn) [I-832, Ac-PL3-Asp-Npg-B5-Asp-Asp-Ala-Ala-Phe-Asn-PyrS3-3Thi-BztA-His-dAla-NH2]
12 | 13 |  |  |  |  | 2.46 |  |  | 7000 | CC(=O)N1CCC[C@]12CC=CCCCC1(CCCC=CCCCOC(=O)N3CC[C@@](C(=O)N[C@@H](Cc4ccsc4)C(=O)N[C@@H](Cc4csc5ccccc45)C(=O)N[C@@H](CCC(N)=O)C(N)=O)(C3)NC(=O)[C@H](Cc3ccccc3)NC(=O)[C@H](Cc3ccccc3)NC(=O)[C@H](C)NC(=O)[C@H](C)NC(=O)[C@H](CN(CC(=O)O)CC(F)(F)F)NC(=O)[C@H](CC(=O)O)NC1=O)NC(=O)[C@H](CC(C)(C)C)NC(=O)[C@H](CC(=O)O)NC2=O (stereo partly drawn) [I-848, Ac-PL3-Asp-Npg-B5-Asp-TfeGA-Ala-Ala-Phe-Phe-PyrS2-3Thi-BztA-Gln-NH2]
